Read-outs that look alike come from different tables or passages of the source.
Key:
mice [1] = experiment: Mouse Tail Suspension Test; format: in vivo; conditions: PO
Procedure: The method, which detects antidepressant activity, follows that described by Stéru et al (Psychopharmacology, 85: 367-370 (1985)). Rodents, suspended by the tail, rapidly become immobile. Antidepressants decrease the duration of immobility.
The behavior of the animal was recorded automatically for 5 minutes using a computerized device (Med-Associates Inc.) similar to that developed by Stéru et al (Prog. Neuropsychopharmacol. Exp. Psychiatry 11: 659-671 (1987)). Ten to twelve mice were tested in each group. Compounds were typically evaluated at 3 doses (1-30 mg/kg), administered orally one time: 30-60 minutes before the test, and compared with a vehicle control group. Desipramine (100 mg/kg), administered under the same experimental conditions, was used as the positive reference substance.
(§1) Data were analyzed by one way analysis of variance (ANOVA) followed by post-hoc comparisons where appropriate. An effect was considered significant if p<0.05. Data are represented as the mean and standard error to the mean (s.e.m).

[2] = target: T1, human serotonin (5-HT) reuptake transporter (Homo sapiens, UniProt P31645); experiment: functional uptake assay, human 5-HT reuptake transporter; format: cell-based
T1 construct: expressed in transfected cells
T1 sequence (P31645 whole entry): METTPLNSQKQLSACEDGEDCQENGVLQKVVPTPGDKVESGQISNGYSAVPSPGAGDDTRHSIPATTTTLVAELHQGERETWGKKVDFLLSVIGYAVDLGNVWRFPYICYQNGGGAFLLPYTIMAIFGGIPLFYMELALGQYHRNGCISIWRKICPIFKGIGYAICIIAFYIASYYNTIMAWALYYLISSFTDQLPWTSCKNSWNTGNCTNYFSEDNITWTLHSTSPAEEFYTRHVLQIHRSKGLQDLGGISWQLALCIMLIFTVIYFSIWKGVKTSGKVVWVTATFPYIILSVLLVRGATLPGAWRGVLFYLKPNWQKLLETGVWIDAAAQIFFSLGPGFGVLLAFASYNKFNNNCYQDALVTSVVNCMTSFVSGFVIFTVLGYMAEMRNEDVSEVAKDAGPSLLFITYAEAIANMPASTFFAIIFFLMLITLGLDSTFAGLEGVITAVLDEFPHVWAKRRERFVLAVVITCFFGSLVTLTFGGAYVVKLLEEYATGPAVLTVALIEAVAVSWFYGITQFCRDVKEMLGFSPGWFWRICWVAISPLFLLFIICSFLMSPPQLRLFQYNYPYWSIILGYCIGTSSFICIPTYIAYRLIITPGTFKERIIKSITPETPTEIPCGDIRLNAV
Procedure: (§2) Compounds were tested for their inhibition of functional uptake of serotonin (5-HT), norepinephrine (NE), and dopamine (DA), in synaptosomes prepared from rat whole brain, hypothalamus, or corpus striatum, respectively, and/or using recombinant human transporters.

[3] = tested on: CYP2D6, CYP2C9, CYP3A4, CYP2C19, CYP1A (printed 1a); experiment: inhibition of CYP450 enzymes; format: in vitro ADME; conditions: 5 isoforms; read-out: CYP inhibition IC50 (microM) 5 isoforms (2D6, 2C9, 3A4, 2C19, 1a)
Description: (§3) 4b. In Vitro PK Data (Human Metabolic Stability, Inhibition of CYP450 Enzymes, Inhibition of HERG Current)

HERG current = HERG current (Homo sapiens, UniProt Q12809); experiment: inhibition of HERG current; format: cell-based
Chain of HERG current (Q12809 whole entry): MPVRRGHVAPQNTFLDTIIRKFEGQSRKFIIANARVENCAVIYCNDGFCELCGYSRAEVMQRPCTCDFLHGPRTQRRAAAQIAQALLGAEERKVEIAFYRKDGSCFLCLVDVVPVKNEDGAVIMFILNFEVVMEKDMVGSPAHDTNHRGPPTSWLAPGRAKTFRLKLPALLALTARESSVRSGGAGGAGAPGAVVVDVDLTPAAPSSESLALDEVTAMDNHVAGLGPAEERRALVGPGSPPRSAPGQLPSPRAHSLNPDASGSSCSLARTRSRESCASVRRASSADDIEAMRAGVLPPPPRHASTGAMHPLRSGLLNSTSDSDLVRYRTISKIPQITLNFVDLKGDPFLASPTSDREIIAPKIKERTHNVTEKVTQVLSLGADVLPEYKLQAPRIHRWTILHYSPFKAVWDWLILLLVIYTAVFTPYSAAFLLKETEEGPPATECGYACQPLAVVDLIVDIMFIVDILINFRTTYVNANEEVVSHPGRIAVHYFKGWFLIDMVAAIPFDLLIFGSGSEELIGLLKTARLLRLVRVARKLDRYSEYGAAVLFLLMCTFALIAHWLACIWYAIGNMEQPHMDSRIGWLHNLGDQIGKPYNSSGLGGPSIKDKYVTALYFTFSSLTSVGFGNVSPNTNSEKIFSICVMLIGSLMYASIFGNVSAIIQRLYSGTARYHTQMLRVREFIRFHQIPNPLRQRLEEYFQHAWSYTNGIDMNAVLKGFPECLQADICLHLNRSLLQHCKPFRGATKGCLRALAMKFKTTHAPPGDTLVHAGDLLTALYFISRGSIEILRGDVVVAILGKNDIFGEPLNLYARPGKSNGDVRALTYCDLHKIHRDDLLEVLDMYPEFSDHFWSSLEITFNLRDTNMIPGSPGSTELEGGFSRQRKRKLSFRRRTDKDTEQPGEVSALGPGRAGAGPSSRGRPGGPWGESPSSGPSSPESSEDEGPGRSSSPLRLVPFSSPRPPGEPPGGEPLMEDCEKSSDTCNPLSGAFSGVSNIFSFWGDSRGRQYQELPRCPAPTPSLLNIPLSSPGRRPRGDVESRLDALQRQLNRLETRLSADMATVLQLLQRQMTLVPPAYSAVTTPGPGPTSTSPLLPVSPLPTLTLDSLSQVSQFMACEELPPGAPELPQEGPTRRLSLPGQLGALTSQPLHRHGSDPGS
Description: as §3

[4] = target: T2, human dopamine (DA) reuptake transporter (Homo sapiens, UniProt Q01959); experiment: functional uptake assay, human DA reuptake transporter; format: cell-based
T2 construct: expressed in transfected cells
T2 sequence (Q01959 whole entry): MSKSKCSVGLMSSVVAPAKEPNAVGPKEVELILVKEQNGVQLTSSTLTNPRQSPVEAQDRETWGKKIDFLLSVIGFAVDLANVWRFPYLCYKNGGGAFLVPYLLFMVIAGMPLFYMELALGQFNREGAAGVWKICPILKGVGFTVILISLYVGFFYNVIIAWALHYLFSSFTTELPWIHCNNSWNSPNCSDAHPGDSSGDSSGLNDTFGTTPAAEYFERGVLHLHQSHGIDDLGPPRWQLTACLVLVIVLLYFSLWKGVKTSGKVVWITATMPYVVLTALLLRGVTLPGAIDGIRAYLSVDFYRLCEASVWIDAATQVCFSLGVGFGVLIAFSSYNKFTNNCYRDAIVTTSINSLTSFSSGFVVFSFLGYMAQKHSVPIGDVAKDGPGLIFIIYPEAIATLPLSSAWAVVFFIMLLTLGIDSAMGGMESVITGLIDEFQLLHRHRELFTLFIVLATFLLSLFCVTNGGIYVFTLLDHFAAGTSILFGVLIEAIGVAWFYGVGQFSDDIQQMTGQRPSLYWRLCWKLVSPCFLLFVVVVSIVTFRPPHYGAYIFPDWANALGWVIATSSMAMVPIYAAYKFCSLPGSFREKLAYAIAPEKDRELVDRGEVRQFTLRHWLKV
Procedure: as §2

[5] = target: T3, human norepinephrine (NE) reuptake transporter (Homo sapiens, UniProt P23975); experiment: functional uptake assay, human NE reuptake transporter; format: cell-based
T3 construct: expressed in transfected cells
T3 sequence (P23975 whole entry): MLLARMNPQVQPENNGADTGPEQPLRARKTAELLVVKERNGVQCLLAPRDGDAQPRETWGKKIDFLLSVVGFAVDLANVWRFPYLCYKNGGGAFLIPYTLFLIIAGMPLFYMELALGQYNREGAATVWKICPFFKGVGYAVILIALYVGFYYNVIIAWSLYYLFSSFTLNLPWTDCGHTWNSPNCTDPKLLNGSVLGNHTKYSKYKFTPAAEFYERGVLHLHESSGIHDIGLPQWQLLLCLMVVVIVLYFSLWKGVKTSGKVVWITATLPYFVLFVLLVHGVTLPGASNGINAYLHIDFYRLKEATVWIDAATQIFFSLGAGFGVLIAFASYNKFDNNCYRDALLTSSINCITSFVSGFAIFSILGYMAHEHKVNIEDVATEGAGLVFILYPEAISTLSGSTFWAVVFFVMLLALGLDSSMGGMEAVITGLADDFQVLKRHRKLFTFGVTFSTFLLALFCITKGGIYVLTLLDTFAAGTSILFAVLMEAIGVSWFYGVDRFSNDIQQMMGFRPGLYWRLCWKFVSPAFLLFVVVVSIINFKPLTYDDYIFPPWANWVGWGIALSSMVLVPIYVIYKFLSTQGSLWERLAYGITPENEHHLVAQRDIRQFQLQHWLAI
Procedure: as §2

[6] = human metabolic stability (HLM t1/2); format: in vitro ADME; conditions: human liver microsomes
Description: as §3

mice [7] = experiment: Mouse Locomotor Activity; format: in vivo; conditions: PO
Procedure: In order to ensure effects of the compounds on immobility time were not related to a general stimulant effect on baseline motor activity, locomotor activity was assessed using photocell monitored cages (Med-Associates Inc.). Each test chamber was equipped with infrared photocell beams to measure movement of the animals. Horizontal and vertical activity were measured.
Rats or mice were pretreated with vehicle or test compounds and placed back in home cage, following which they were individually placed in locomotor cages and activity was monitored in 1-5 minute intervals for intervals up to 60 min.
as §1

[8] = target: T4, Norepinephrine Transporter (NET) (Mus musculus, UniProt O55192); experiment: ex vivo [3H] nisoxetine binding to NET sites in mouse brain; conditions: mice, 60 minutes after treatment
T4 construct: Cortical membranes (400 μL; equivalent to 6.0 mg wet weight of tissue/tube); from tissue; host or cells: frontal cortex of C57BL/6 mice
T4 sequence (O55192 whole entry): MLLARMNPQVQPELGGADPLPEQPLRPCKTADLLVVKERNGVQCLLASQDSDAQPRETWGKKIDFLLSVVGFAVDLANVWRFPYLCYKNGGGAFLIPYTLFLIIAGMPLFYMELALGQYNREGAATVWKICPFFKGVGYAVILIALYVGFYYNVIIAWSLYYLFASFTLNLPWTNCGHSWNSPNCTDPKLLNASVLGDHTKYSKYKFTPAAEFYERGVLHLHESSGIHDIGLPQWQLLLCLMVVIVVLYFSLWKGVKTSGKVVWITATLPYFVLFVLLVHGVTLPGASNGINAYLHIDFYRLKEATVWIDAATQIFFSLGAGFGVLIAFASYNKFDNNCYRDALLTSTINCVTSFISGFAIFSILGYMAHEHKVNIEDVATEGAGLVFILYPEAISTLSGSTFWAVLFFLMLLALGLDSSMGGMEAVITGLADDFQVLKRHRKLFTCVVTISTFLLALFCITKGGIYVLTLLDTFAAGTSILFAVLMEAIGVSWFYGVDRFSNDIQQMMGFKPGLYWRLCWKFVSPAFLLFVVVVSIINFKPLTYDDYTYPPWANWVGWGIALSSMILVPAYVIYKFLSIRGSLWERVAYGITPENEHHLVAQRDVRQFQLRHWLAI
Procedure: (§4) Receptor occupancy of central noradrenaline (NA), 5-HT and dopamine (DA) transporter sites following peripheral administration of compounds was determined using [^3H] nisoxetine, [^3H] citalopram and [^3H] WIN 35428 binding, respectively. Liquid scintillation counting was used to quantify the radioactivity.
(§5) C57BL/6 mice (25-30 g) were dosed orally with either vehicle or compound at 4 dose levels. Mice were sacrificed 60 minutes after treatment. Whole brains were removed and cortex and striata dissected out before being frozen on dry ice. The brain tissue was stored at −20° C. until the day of the assay. The cortex from each hemisphere was frozen separately. One was used to determine occupancy of NA transporter sites and the other occupancy of 5-HT transporter sites. Striatum was used to determine occupancy of DA transporter sites.
(§6) Frontal cortex from each hemisphere or striata was homogenized individually in ice-cold assay buffer using a tight fitting glass/Teflon homogenizer and used immediately in the binding assay.
Cortical membranes (400 μL; equivalent to 6.0 mg wet weight of tissue/tube) were incubated with 50 μL of [^3H] nisoxetine at a single concentration of 0.6 nM and either 50 μL of buffer (total binding) or 50 μL of mazindol (1 μM; non-specific binding) for 4 h at 4° C. For each animal, three tubes were used for the determination of total binding and three tubes were used for the determination of non-specific binding.
(§7) Membrane bound radioactivity was recovered by filtration under vacuum through Skatron 11731 filters, presoaked in 0.5% PEI, using a Skatron cell harvester. Filters were rapidly washed with ice-cold phosphate buffer and radioactivity (dpm) was determined by liquid scintillation counting (1 mL Packard MV Gold scintillator).
(§8) A value for specific binding (dpm) was generated by the subtraction of mean non-specific binding (dpm) from mean total binding (dpm) for each animal. Data are presented as mean specific binding (dpm) and as a percentage of the vehicle-treated control taken as 100%.

DA Transporter (DAT) = target: T5, DA Transporter (DAT) (Mus musculus, UniProt Q61327); experiment: ex vivo [3H] WIN 35428 binding to DAT sites in mouse brain; conditions: mice, 60 minutes after treatment
T5 construct: Striatal membranes (200 μL; equivalent to 2 mg wet weight of tissue/tube); from tissue; host or cells: striatum of C57BL/6 mice
T5 sequence (Q61327 whole entry): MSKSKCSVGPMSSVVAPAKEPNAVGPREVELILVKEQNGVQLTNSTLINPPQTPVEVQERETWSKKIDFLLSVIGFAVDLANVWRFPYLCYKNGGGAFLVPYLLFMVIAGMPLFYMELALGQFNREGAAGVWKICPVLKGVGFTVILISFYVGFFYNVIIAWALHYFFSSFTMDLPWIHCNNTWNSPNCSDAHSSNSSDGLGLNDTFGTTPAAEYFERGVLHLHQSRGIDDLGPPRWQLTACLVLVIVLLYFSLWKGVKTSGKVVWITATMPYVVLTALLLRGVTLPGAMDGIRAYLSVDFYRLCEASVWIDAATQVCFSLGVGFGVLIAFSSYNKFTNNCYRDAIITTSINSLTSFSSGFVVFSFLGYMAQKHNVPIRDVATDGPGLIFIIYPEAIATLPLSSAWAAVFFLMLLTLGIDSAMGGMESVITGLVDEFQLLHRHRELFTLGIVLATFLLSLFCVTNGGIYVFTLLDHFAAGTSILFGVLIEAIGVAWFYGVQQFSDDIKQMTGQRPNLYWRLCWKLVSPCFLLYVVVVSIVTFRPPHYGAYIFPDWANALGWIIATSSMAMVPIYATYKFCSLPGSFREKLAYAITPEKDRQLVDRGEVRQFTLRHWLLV
Procedure: as §4, §5, §6
Striatal membranes (200 μL; equivalent to 2 mg wet weight of tissue/tube) were incubated with 25 μL of [^3H] WIN 35428 at a single concentration of 24 nM and either 25 μL of buffer (total binding) or 25 μL of GBR12935 (1 μM; non-specific binding) for 2 h at 4° C. For each animal, two tubes were used for the determination of total binding and two tubes for the determination of non-specific binding.
as §7, §8

[9] = Example 6 summary of selected in vitro data, read-out: 5-HT IC50

Structure (SMILES) | Mouse Tail Suspension Mean Immobility Time ± S.E.M. (mice [1]; 1 mg/kg) | Mouse Tail Suspension Mean Immobility Time ± S.E.M. (mice [1]; 10 mg/kg) | Mouse Tail Suspension Mean Immobility Time ± S.E.M. (mice [1]; 30 mg/kg) | IC50 [2, 9] [nM] | IC50 [3] [µM] | IC50 [4] [nM] | IC50 [5] [nM] | half-life [6] [h] | Mouse Locomotor Activity Total Distance Traveled ± S.E.M. (mice [7]; 1 mg/kg) | Mouse Locomotor Activity Total Distance Traveled ± S.E.M. (mice [7]; 10 mg/kg) | Mouse Locomotor Activity Total Distance Traveled ± S.E.M. (mice [7]; 30 mg/kg) | further results
CNC[C@@H]1CCCC[C@@]1(O)c1ccc(Cl)c(Cl)c1 [Compound 4] | ++++ (>191 (++++)) | +++ (171-190 (+++)) | + (100-160 (+)) | > 10000 | > 10 | 10 to 200 | 10 to 200 | 2.93 to 5.42 | ** (501-700 (**)) | *** (701-900 (***)) | * (100-500 (*)) | Mouse Tail Suspension Mean Immobility Time ± S.E.M. (mice [1]; 3 mg/kg): ++++ (>191 (++++)); IC50 ([2]; Example 4a, human reuptake transporter, read-out: 5-HT IC50): > 10000 nM; IC50 (HERG current): 1000 to 15000 nM; IC50 ([4]; read-out: DA IC50 nM, Example 6 summary of selected in vitro data): 10 to 200 nM; IC50 ([5]; read-out: NE IC50 nM, Example 6 summary of selected in vitro data): 10 to 200 nM; Mouse Locomotor Activity Total Distance Traveled ± S.E.M. (mice [7]; 3 mg/kg): ** (501-700 (**))
CN(C)C[C@@H]1CCCC[C@@]1(O)c1ccc(Cl)c(Cl)c1 (single isomer, unassigned) [Compound 2, cis-1-(3,4-dichlorophenyl)-2-((dimethylamino)methyl)cyclohexanol] | +++ (171-190 (+++)) | + (100-160 (+)) | + (100-160 (+)) | 1 to 2000 | > 20 | 10 to 200 | 10 to 200 | 0.417 to 2.92 | ** (501-700 (**)) | **** (>901 (****)) | * (100-500 (*)) | Mouse Tail Suspension Mean Immobility Time ± S.E.M. (mice [1]; 0.3 mg/kg): +++ (171-190 (+++)); IC50 ([2]; 5-HT IC50 (nM), Example 4a, human reuptake transporter): 7000 to 10000 nM; % Transporter Occupancy, NET ([8]; 1 mg/kg PO): 19%; % Transporter Occupancy, NET ([8]; 3 mg/kg PO): 44%; % Transporter Occupancy, NET ([8]; 10 mg/kg PO): 74%; % Transporter Occupancy, NET ([8]; 30 mg/kg PO): 89%; IC50 (HERG current; read-out: HERG IC50): 16000 to 30000 nM; IC50 ([4]; Example 6 summary of selected in vitro data, read-out: DA IC50): 10 to 200 nM; IC50 ([5]; Example 6 summary of selected in vitro data, read-out: NE IC50): 10 to 200 nM; Mouse Locomotor Activity Total Distance Traveled ± S.E.M. (mice [7]; 0.3 mg/kg): ** (501-700 (**)); % Transporter Occupancy, DAT (DA Transporter (DAT); 1 mg/kg PO): 15%; % Transporter Occupancy, DAT (DA Transporter (DAT); 3 mg/kg PO): 50%; % Transporter Occupancy, DAT (DA Transporter (DAT); 10 mg/kg PO): 79%; % Transporter Occupancy, DAT (DA Transporter (DAT); 30 mg/kg PO): 90%

From patent publication US8669291B2, “Phenyl substituted cycloalkylamines as monoamine reuptake inhibitors” (Sunovion Pharmaceuticals Inc., priority 2007, dated 2014)
